How the values were obtained:
[1] = test system: breast cancer MCF-7 cells; test: Cell viability (MTT) assay, MCF-7; type: cell-based, human; conditions: for IC50: 24 h incubation, n = 9, MTT, read-out: IC50 ± SD, MCF-7; for Selectivity index (SI) against MCF-7: IC50 against non-cancerous ARPE-19 cells divided by IC50 against MCF-7
Experimental: (§1) The potential therapeutic activity of the copper pyrithione complexes was determined by screening complexes for 24 hours against human cancer cell lines MCF-7 (breast) and MIA PaCa-2 (pancreatic), alongside a non-cancerous epithelial cell line ARPE-19 (retinal). As controls, cisplatin and CuCl2·2H2O were also included in the screen (Table 2). […]
(§2) All cell lines were maintained as monolayers in either T75 or T175 flasks in complete high glucose DMEM media (supplemented with 10% Fetal Bovine Serum, 1% sodium pyruvate, 1% L-glutamine, 1% penstrep). All cell lines were seeded at 4000 cells/well in a clear-bottom 96-well plate and incubated for 24 h for cells to adhere. The cells were treated with varying concentrations of each complex and left to incubate for a further 24 h. MTT reagent (20 mL, 5 mg/mL) was added to each well, and the plates were incubated for 3 h. The media was removed by aspiration, followed by the addition of DMSO (150 mL) to solubilise the formazan. The absorbance was read using a Clariostar plate reader at 540 nm. Results were plotted on a logarithmic scale, and the half maximal inhibitory concentration (IC 50) was determined from a triplicate of triplicate repeats and reported as an IC 50 ± Standard Deviation (SD). […]

[2] = test system: non-cancerous retinal epithelial ARPE-19 cells; test: Cell viability (MTT) assay, ARPE-19; type: cell-based; conditions: 24 h incubation, n = 9, MTT; read-out: IC50 ± SD, ARPE-19
Experimental: as §1, §2

[3] = test system: pancreatic cancer MIA PaCa-2 cells; test: Cell viability (MTT) assay, MIA PaCa-2; type: cell-based, human; conditions: for IC50: 24 h incubation, n = 9, MTT, read-out: IC50 ± SD, MIA PaCa-2
Experimental: as §1, §2

MCF-7 cells [4] = test: Reactive oxygen species study, H2DCFDA stain (Method 1); type: cell-based, human; conditions: complex at 10 μM for 1 h, H2DCFDA 20 μM for 30 min
Description: To understand a potential mechanism of action, we determined production of reactive oxygen species (ROS) using fluorescent microscopy assays. ROS production is a common mode of therapeutic activity of copper complexes.[43] […] In the presence of ROS, H2DCFDA converts to a fluorescent dye that can be observed using microscopy. […] By contrast, control cells with no pyrithione complex added show little fluorescence (Fig. 6A). […] (Fig. 6B), [Cu(6-Me-PT)2] (Fig. 6C), and [Cu(3-OMe-PT)2] […] (Fig. 6D) was weaker. This variation correlates well with the cytotoxicity data in Table 2, with the methyl and methoxy complexes also showing the highest activity.
Next, cells were dosed at two concentrations of pyrithione complex to determine whether production of ROS is dose-dependent. Results for [Cu(3-OMe-PT)2] are shown at 1 μM (Fig. 6E) and 10 μM (Fig. 6F) after 1 hour; results for other complexes are shown in the SI (Fig. S11 and 12). In all cases, the fluorescence intensity increases in assays with 10 μM complex, compared to assays with 1 μM complex, supporting a mode of action where increasing complex concentration leads to increased ROS generation and higher cytotoxicity. […]
absorbance and K = binding constant. […]
The cells were treated with varying
Results were plotted on a
Reactive oxygen species study:
Method 1: 2′,7′-dichlorodihydrofluorescein diacetate (H 2DCFDA) stain: […]
untreated sample (negative control). After this time, 2′,7′-dichlorodihydrofluorescein diacetate […]
Stock solutions of the compounds (5 mM) were made

[5] = Thermodynamic stability constant, Benesi-Hildebrand UV-vis titration; type: physicochemical; conditions: Benesi-Hildebrand method, MeCN:H2O 1:1, absorbance at 320 nm
Experimental: (§3) Where [M] is concentration of copper, [L] is concentration of the activated ligand, b is the pathlength, which was kept at 1 cm, ɛ is molar extinction coefficient of the complex, A is absorbance and K = binding constant.
All cell lines were maintained as monolayers in either T75 or T175 flasks in complete high glucose DMEM media (supplemented with 10% Fetal Bovine Serum, 1% sodium pyruvate, 1% L-glutamine, 1% penstrep). All cell lines were seeded at 4000 cells/well in a clear-bottom 96-well plate and incubated for 24 h for cells to adhere. The cells were treated with varying concentrations of each complex and left to incubate for a further 24 h. MTT reagent ([…], 5 mg/mL) was added to each well, and the plates were incubated for 3 h. The media was removed by aspiration, followed by the addition of DMSO ([…]) to solubilise the formazan. The absorbance was read using a Clariostar plate reader at 540 nm. Results were plotted on a logarithmic scale, and the half maximal inhibitory concentration (IC 50) was determined from a triplicate of triplicate repeats and reported as an IC 50 ± Standard Deviation (SD).

[6] = Lipophilicity, octanol:water shake-flask method with ICP-OES copper quantification; conditions: copper by ICP-OES, triplicate
Experimental: Due to the low aqueous solubility of [Cu(PT)2], inductively coupled plasma-optical emission spectroscopy (ICP-OES) was used to quantify copper in the octanol and water layers (see SI).
General procedure for logP measurement:
Stock solutions (10 mM) of the tested copper complexes were prepared in DMSO solvent.
Water and octanol were saturated with the other solvent to match the final shake-flask
conditions. Next, log P values were determined using the shake-flask method. For each
complex, 60 µl of the stock solution was added to a mixture of 3 ml water and 3 ml n-octanol.
The solution was shaken by hand and vortexed. The layers were separated and analysed by
inductively coupled plasma optical emission spectroscopy (ICP-OES). For the octanol layer,
100 µl was collected in a vial and the solvent was evaporated under high vacuum. Next, the
residue was dissolved in 100 µl methanol and further diluted with 10 ml of 5% aqueous nitric
acid (HNO 3) solution for digestion. For the water layer, 1 ml of solution was diluted with 9 ml
of 5% aqueous HNO 3 solution. After analysis through ICP-OES technique, the amount of
copper in each sample was determined in ppm. To remove background copper, the exact
conditions were repeated in the absence of copper pyrithione complexes and the values were
subtracted from the measured values. The partition coefficient (P) and respective logP values

[7] = test system: HepG2 (liver) cancer cell line; conditions: cited from earlier work
[8] = test system: U266 (myeloma) cancer cell line; conditions: cited from earlier work
MCF-7 cells [9] = conditions: dosed, fixed
Experimental: as §3
as §2, with “MTT reagent (20 mL, 5 mg/mL) was added to each well, and the plates were incubated for 3 h. The media was removed by aspiration, followed by the addition of DMSO (150 mL) to solubilise the formazan.” left out
MCF-7 cells were seeded into a black 96 well optical bottom plate at 8000 cells/well in phenol-red free complete DMEM medium (100 μl), and incubated at 37 °C and 5% CO 2 for 24 h. […] Cells were gently washed with PBS (2 x 100 µl), and 100 µl of PBS was added to each well before reading.
Fluorescence images were obtained using Zeiss Axio Observer 7 inverted microscope at excitation at 488 nm and emission at 509 nm, and analysed using ZEN 3.8 software. […]

[10] = Solubility by observation; conditions: aqueous and organic solvents, qualitative
[11] = test system: NCI-H929 (myeloma) cancer cell line; conditions: cited from earlier work
[12] = test system: MCF-7 (breast) cancer cell line; conditions: cited from earlier work

| SMILES | IC50 [1] | IC50 [2] | IC50 [3] | Selectivity index (SI) against MCF-7 [1] | ROS production, H2DCFDA fluorescence (MCF-7 cells [4]) | Log(K/(M^−2)) [5] | Selectivity index (SI) against MIA PaCa-2 ([3]; IC50 against non-cancerous ARPE-19 cells divided by IC50 against MIA PaCa-2) | Log P [6] | IC50 against HepG2 [7] | IC50 against U266 [8] | ROS levels compared to menadione, CellROX stain (MCF-7 cells [9]) | Solubility (by observation) [10] | IC50 against NCI-H929 [11] | IC50 against MCF-7 [12] |
| --- | --- | --- | --- | --- | --- | --- | --- | --- | --- | --- | --- | --- | --- | --- |
| [Cu+2].[O-]n1ccc(C(F)(F)F)cc1=S.[O-]n1ccc(C(F)(F)F)cc1=S [[Cu(4-CF3-PT)2]] | 8900 ± 300 nM | 17300 ± 400 nM | 21600 ± 400 nM | – | – | – | – | – | – | – | – | – | – | – |
| COc1ccc[n+]([O-])c1[S][Cu][S]c1c(OC)ccc[n+]1[O-] [[Cu(3-OMe-PT)2]] | 220 ± 10 nM | 870 ± 40 nM | 2700 ± 100 nM | 3.95 | brightest fluorescence | 7.560 ± 0.002 | – | – | – | – | – | – | – | – |
| Cc1cc[n+]([O-])c([S][Cu][S]c2cc(C)cc[n+]2[O-])c1 [[Cu(4-Me-PT)2]] | 690 ± 20 nM | 1800 ± 100 nM | 8500 ± 300 nM | – | – | – | – | – | – | – | – | – | – | – |
| N.N.[Cl][Pt][Cl] [Cisplatin, reference compound] | 40000 ± 1000 nM | 13000 ± 100 nM | > 100000 nM | – | – | – | < 0.13 | – | – | – | – | – | – | – |
| Cc1cccn([O-])c1=S.Cc1cccn([O-])c1=S.[Cu+2] [[Cu(3-Me-PT)2]] | 347 ± 6 nM | 2200 ± 100 nM | 7100 ± 200 nM | 6.34 | – | – | – | – | – | – | – | – | – | – |
| On1ccccc1=S.On1ccccc1=S.[Cu] [[Cu(PT)2], copper pyrithione] | 270 ± 10 nM | 410 ± 50 nM | 2220 ± 80 nM | – | brightest fluorescence | 7.528 ± 0.004 | – | 2.34 | submicromolar | submicromolar | lower levels of ROS | low solubility | submicromolar | submicromolar |
| Cc1cccc([S][Cu][S]c2cccc(C)[n+]2[O-])[n+]1[O-] [[Cu(6-Me-PT)2]] | 570 ± 10 nM | 570 ± 30 nM | 2100 ± 100 nM | – | brightest fluorescence | 7.498 ± 0.005 | – | – | – | – | – | – | – | – |
| [Cl][Cu][Cl] [CuCl2·2H2O, reference compound] | > 100000 nM | 83000 ± 2000 nM | > 100000 nM | – | – | – | – | – | – | – | – | – | – | – |

Reference: article PMC12519996, “Copper pyrithione complexes with endoplasmic reticulum localisation showing anticancer activity via ROS generation” (Chemical Science, 2025)
